Assay results reported in paper PMC11303713, “Allosteric inhibition of CFTR gating by CFTRinh-172 binding in the pore” (Nature Communications, 2024).
Values joined by “and” are separate entries in the source; they are usually repeats but may differ in a detail not shown here. Equal entries are not always repeated. Where two headings read alike, the source gives them in different places.

How the values were obtained:
Test in all cases: Inside-out patch-clamp inhibition of CFTR current by Inh-172
Format in all cases: cell-based
pig WT-CFTR = biological target: T1, pig WT-CFTR (Sus scrofa, UniProt Q6PQZ2)
T1 construct: expressed in transfected cells; host or cells: CHO cells, pcDNA plasmid

[1] = biological target: T2, h-pTMD1-h-CFTR (human CFTR with pig CFTR's TMD1) (Homo sapiens, UniProt P13569, A209T/D426N/E115A/E407K/F315L/F87I/G228A/I125V/I215L/I231V/I328L/I332M/L145P/N418S/N445S/P41S/Q39H/R242K/S256N/T421I/V11I/V12F/V43S)
T2 construct: expressed in transfected cells; host or cells: CHO cells, pcDNA plasmid

[2] = biological target: T3, h-pTMD2-h-CFTR (human CFTR with pig CFTR's TMD2) (Homo sapiens, UniProt P13569, A1009S/A789T/A797V/A842T/E1221D/E815D/F931L/G885K/H897K/H950R/I1005V/I1226V/I853V/I869V/I982V/INS1173D/K1174Q/K1177R/K830R/L805I/L889P/M1028L/M837V/M929L/N1184D/N782S/N886K/P888S/Q1012K/Q1035H/R1128T/R899A/S1196Q/S877C/S898G/S912A/T1171A/T1176N/T1179F/T1220V/T788A/T925G/V1017L/V1056I/V794M/W882C/Y1182S); settings: for inhibition at 0.5 µM: 500 nM Inh-172; for inhibition at 1 µM: 1000 nM Inh-172; for inhibition at 10 µM: 10000 nM Inh-172
T3 construct: expressed in transfected cells; host or cells: CHO cells, pcDNA plasmid

[3] = 50 nM Inh-172, read-out: percent inhibition of current, Mean
[4] = 100 nM Inh-172, read-out: percent inhibition of current, Mean
[5] = 500 nM Inh-172, read-out: percent inhibition of current, Mean
[6] = 500 nM Inh-172, read-out: percent inhibition of current, individual cell
[7] = 1000 nM Inh-172, read-out: percent inhibition of current, Mean
[8] = 5000 nM Inh-172, read-out: percent inhibition of current, Mean
[9] = 10000 nM Inh-172, read-out: percent inhibition of current, Mean
[10] = 10000 nM Inh-172, read-out: percent inhibition of current, individual cell
[11] = read-out: percent inhibition of current, Mean
[12] = read-out: percent inhibition of current, individual cell

T2 sequence (P13569 1-1480 with the stated changes): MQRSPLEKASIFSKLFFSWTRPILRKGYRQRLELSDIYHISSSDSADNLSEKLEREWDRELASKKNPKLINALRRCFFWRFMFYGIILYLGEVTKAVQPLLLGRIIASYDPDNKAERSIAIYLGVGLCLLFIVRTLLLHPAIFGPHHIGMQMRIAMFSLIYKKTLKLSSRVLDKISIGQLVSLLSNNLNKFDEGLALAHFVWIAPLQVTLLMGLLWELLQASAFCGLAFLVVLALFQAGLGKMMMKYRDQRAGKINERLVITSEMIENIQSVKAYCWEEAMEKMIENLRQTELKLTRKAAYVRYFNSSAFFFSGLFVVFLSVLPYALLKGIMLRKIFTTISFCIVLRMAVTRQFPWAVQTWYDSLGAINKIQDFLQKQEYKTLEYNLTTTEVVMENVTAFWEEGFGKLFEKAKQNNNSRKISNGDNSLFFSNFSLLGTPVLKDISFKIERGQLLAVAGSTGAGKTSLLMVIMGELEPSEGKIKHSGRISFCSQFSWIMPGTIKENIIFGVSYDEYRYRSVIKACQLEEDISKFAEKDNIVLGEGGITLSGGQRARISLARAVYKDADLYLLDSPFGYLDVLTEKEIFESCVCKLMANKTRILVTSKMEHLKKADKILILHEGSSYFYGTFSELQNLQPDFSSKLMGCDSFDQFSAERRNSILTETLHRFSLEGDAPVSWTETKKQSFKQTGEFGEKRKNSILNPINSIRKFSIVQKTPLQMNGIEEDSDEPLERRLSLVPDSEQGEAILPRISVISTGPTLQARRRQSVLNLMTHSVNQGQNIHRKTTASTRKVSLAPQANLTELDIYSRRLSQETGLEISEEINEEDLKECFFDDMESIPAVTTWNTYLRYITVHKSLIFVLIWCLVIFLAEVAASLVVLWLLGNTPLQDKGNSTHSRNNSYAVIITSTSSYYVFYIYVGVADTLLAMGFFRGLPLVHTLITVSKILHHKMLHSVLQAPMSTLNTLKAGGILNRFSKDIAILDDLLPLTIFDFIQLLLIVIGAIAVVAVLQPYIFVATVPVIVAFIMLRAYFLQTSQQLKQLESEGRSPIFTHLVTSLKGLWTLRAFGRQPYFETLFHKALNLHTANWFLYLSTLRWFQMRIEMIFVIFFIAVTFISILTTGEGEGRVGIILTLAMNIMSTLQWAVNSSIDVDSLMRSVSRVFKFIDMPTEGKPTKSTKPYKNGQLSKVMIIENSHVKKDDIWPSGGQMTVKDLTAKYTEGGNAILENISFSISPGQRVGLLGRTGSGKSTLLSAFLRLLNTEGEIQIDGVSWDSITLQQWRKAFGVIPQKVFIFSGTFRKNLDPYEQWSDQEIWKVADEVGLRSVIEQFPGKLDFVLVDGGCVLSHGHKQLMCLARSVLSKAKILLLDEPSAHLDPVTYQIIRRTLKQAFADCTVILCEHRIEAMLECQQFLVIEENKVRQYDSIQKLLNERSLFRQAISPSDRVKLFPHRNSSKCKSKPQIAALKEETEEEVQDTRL
T3 sequence (P13569 with tags, fused parts or gaps with the stated changes): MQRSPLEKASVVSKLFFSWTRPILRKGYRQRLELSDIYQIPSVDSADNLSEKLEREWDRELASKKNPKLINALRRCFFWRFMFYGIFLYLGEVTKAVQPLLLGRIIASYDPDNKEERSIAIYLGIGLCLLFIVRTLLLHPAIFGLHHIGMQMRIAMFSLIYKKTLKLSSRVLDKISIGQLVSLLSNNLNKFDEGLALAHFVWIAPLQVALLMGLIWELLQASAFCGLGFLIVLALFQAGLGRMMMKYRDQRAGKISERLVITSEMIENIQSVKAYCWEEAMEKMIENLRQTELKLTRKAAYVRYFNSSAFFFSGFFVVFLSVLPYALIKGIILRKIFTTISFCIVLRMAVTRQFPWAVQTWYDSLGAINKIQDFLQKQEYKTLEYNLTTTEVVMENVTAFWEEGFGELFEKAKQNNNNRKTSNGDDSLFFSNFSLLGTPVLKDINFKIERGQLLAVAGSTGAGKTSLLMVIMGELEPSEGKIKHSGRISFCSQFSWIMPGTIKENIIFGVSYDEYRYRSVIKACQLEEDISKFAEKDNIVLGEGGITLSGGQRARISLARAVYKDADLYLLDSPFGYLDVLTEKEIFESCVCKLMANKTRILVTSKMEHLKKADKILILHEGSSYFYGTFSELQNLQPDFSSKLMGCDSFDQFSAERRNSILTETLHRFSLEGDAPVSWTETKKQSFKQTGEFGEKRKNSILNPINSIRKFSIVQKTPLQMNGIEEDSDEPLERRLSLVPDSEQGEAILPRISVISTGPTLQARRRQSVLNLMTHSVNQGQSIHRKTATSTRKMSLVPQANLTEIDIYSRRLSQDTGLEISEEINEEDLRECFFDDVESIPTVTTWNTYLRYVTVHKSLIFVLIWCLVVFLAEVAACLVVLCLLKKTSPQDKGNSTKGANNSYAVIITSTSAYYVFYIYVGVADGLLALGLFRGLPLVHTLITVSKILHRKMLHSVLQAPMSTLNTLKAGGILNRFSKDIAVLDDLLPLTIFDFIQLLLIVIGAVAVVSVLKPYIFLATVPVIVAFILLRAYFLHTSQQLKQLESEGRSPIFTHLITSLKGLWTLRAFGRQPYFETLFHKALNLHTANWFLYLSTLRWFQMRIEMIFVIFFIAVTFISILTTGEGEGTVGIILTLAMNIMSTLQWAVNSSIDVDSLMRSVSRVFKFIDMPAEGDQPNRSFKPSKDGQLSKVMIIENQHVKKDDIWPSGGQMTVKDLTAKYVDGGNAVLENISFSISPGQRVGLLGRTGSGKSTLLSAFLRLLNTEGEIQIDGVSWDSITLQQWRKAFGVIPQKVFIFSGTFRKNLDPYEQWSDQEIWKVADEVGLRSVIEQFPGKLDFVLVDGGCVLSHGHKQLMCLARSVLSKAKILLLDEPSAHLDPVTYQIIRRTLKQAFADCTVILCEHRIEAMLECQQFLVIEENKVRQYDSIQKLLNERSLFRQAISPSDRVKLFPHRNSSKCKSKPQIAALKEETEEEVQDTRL
T1 sequence (Q6PQZ2 whole entry): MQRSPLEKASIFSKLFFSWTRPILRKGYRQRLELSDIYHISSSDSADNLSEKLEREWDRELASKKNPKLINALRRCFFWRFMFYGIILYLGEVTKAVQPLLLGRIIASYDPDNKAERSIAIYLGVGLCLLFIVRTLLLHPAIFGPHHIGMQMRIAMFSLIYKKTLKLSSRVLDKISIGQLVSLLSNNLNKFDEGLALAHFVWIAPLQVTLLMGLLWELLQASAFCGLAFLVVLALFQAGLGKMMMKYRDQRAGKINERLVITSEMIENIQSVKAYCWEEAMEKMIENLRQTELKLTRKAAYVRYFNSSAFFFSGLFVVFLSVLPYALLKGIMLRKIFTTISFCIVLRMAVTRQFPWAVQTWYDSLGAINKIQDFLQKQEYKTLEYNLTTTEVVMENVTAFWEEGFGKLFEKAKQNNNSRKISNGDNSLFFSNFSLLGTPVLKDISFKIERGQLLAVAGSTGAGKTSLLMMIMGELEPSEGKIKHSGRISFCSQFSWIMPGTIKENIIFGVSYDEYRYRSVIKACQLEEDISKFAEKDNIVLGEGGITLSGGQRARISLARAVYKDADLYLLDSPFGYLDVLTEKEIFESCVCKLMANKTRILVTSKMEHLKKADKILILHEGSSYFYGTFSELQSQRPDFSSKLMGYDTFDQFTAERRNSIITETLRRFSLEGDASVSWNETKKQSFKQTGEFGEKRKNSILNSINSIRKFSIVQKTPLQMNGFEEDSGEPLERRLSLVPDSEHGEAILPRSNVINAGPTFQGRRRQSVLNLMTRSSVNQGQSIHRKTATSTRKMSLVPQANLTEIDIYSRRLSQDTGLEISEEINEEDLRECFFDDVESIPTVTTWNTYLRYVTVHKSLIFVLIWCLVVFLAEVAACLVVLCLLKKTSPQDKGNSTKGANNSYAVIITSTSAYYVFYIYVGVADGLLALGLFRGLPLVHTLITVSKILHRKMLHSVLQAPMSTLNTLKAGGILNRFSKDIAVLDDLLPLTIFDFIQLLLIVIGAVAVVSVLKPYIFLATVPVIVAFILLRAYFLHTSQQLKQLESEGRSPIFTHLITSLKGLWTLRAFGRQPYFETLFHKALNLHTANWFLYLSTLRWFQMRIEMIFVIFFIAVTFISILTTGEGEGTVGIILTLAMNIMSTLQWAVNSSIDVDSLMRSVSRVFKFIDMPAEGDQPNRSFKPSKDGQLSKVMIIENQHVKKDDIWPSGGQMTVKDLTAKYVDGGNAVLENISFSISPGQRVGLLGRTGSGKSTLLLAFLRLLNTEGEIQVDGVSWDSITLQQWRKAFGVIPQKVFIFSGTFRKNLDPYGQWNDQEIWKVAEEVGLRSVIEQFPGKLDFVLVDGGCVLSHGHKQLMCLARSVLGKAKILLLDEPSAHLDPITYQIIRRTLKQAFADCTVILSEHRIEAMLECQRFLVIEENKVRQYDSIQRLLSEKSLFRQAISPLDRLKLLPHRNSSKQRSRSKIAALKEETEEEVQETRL

## O=C(O)c1ccc(/C=C2\SC(=S)N(c3cccc(C(F)(F)F)c3)C2=O)cc1 [Inh-172, CFTRinh-172]
Pig WT-CFTR; 50 nM Inh-172
  percent inhibition of current, individual cell: 2.0 and 4.0 and 8.0 and 15.0 and 7.0
Pig WT-CFTR; [3]
  inhibition at 0.05 µM: 7.2%
Pig WT-CFTR; 100 nM Inh-172
  percent inhibition of current, individual cell: 2.0 and 18.0 and 5.0 and 13.0 and 6.0 and 7.0
Pig WT-CFTR; [4]
  inhibition at 0.1 µM: 8.1%
Pig WT-CFTR; 500 nM Inh-172
  percent inhibition of current, individual cell: 31.0 and 27.0 and 25.0 and 23.0
Pig WT-CFTR; [5]
  inhibition at 0.5 µM: 25.9%
Pig WT-CFTR; [6]
  inhibition at 0.5 µM: 22%
Pig WT-CFTR; 1000 nM Inh-172
  percent inhibition of current, individual cell: 33.0 and 38.0 and 40.0 and 21.0 and 41.0 and 44.0 and 39.0 and 36.0 and 29.0 and 42.0
Pig WT-CFTR; [7]
  inhibition at 1 µM: 36.3%
Pig WT-CFTR; 5000 nM Inh-172
  percent inhibition of current, individual cell: 62.0 and 70.0 and 59.0 and 77.0 and 72.0 and 79.0
Pig WT-CFTR; [8]
  inhibition at 5 µM: 68.1%
Pig WT-CFTR; 5000 nM Inh-172, read-out: percent inhibition of current, individual cell
  inhibition at 5 µM: 67%
Pig WT-CFTR; 10000 nM Inh-172
  percent inhibition of current, individual cell: 83.0 and 79.0 and 82.0 and 73.0 and 80.0 and 93.0
Pig WT-CFTR; [9]
  inhibition at 10 µM: 82.7%
Pig WT-CFTR; [10]
  inhibition at 10 µM: 89%
Pig WT-CFTR; Pig WT
  Hill Coefficient: 0.83 ± 0.04
  IC50: 1860 ± 120 nM
Pig WT-CFTR; cho cells inside-out patch
  IC50 of pig WT-CFTR higher than human WT-CFTR: ~ 20 fold
[1]; 50 nM Inh-172
  percent inhibition of current, individual cell: 45.0 and 25.0
[1]; [3]
  inhibition at 0.05 µM: 35.8%
[1]; 50 nM Inh-172, read-out: percent inhibition of current, individual cell
  inhibition at 0.05 µM: 34%
[1]; 100 nM Inh-172
  percent inhibition of current, individual cell: 51.0 and 37.0 and 50.0
[1]; [4]
  inhibition at 0.1 µM: 44.3%
[1]; 100 nM Inh-172, read-out: percent inhibition of current, individual cell
  inhibition at 0.1 µM: 39%
[1]; 500 nM Inh-172
  percent inhibition of current, individual cell: 86.0 and 76.0
[1]; [5]
  inhibition at 0.5 µM: 81.8%
[1]; [6]
  inhibition at 0.5 µM: 79%
[1]; 1000 nM Inh-172
  percent inhibition of current, individual cell: 94.0 and 89.0
[1]; [7]
  inhibition at 1 µM: 92%
[1]; 1000 nM Inh-172, read-out: percent inhibition of current, individual cell
  inhibition at 1 µM: 91%
[1]; 10000 nM Inh-172
  percent inhibition of current, individual cell: 100.0
[1]; [9]
  inhibition at 10 µM: 99.8%
[1]; [10]
  inhibition at 10 µM: 99%
[1]; h-pTMD1-h
  Hill Coefficient: 0.98 ± 0.10
  IC50: 110 ± 10 nM
[2]; [4]
  inhibition at 0.1 µM: 6.8%
[2]; [11]
  inhibition at 0.5 µM: 18.8%
  inhibition at 1 µM: 28.5%
  inhibition at 10 µM: 62.7%
[2]; [12]
  inhibition at 0.5 µM: 15%
  inhibition at 1 µM: 22%
  inhibition at 10 µM: 68%
[2]; [8]
  inhibition at 5 µM: 56.5%
[2]; h-pTMD2-h
  Hill Coefficient: 0.69 ± 0.04
  IC50: 4020 ± 280 nM
[2]; human CFTR with pig TMD2, earlier manuscript version, peer review file
  IC50: 4020 nM
